According to PMC6982798, “Evaluation of Isoflavones as Bone Resorption Inhibitors upon Interactions with Receptor Activator of Nuclear Factor-κB Ligand (RANKL)” (Molecules, 2020):

Target: T1, sRANKL recombinant (RANKL) (Homo sapiens, UniProt O14788)
T1 construct: gene TNFSF11; human is named only for the docking model (3URF), whose residue numbers (K181, Y235, Q237, Y241) fit human RANKL
T1 sequence (O14788 140-317 limits assumed): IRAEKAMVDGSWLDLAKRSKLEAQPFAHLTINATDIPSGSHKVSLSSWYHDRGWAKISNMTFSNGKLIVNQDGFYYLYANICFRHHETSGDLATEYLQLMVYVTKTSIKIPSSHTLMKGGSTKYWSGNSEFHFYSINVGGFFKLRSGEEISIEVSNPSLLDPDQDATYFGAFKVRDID
Experiment: isothermal titration calorimetry (ITC), single binding mode fit
Conditions: read-out: KA × 10^3 (L/mol) (converted)
Excerpt: isothermal titration calorimetry (ITC), single binding mode fit on sRANKL recombinant (RANKL)

Kd	SMILES
833 µM	COc1ccc(-c2coc3cc(O)cc(O)c3c2=O)cc1 [Biochanin A]
1430 µM	O=c1oc2cc(O)ccc2c2oc3cc(O)ccc3c12 [Coumestrol]
62.7 µM	O=c1c(-c2ccc(O)cc2)coc2cc(O)ccc12 [Daidzein]
318 µM	COc1ccc(-c2coc3cc(O)ccc3c2=O)cc1 [Formononetin]
317 µM	O=c1c(-c2ccc(O)cc2)coc2cc(O)cc(O)c12 [Genistein]
